Experiments:
Format in all cases: functional
[1] = system: Trypanosoma cruzi; test: Antitrypanosomal activity against Trypanosoma cruzi Tulahuen 2 assessed as inhibition of growth of epimastigotes at 25 uM after 5 days by MTT assay relative to control; conditions: Tulahuen 2, 120 h, read-out: GI
[2] = system: Trypanosoma cruzi; test: Antitrypanosomal activity against Trypanosoma cruzi Tulahuen 2 assessed as inhibition of epimastigotes growth after 5 days by MTT assay relative to control; conditions: Tulahuen 2, 120 h, read-out: ID50 (the source's name)
[3] = system: Trypanosoma cruzi; test: Antitrypanosomal activity against Trypanosoma cruzi CL Brener assessed as parasite viability after 5 days by MTT assay; conditions: 120 h, read-out: ID50 (the source's name)
[4] = system: Trypanosoma cruzi; test: Antitrypanosomal activity against Trypanosoma cruzi Y assessed as parasite viability after 5 days by MTT assay; conditions: 120 h, read-out: ID50 (the source's name)
[5] = system: Leishmania braziliensis; test: Antileishmanial activity against Leishmania braziliensis MHOM/BR/00/LTB300 assessed as parasite viability after 5 days by MTT assay; conditions: 120 h, read-out: ID50 (the source's name)
[6] = system: Leishmania pifanoi; test: Antileishmanial activity against Leishmania pifanoi MHOM/VE/57/LV135 assessed as parasite viability after 5 days by MTT assay; conditions: 120 h, read-out: ID50 (the source's name)

Row | SMILES | inhibition of growth at 25 µM [1] | also measured
1 | CS(=O)(=O)CCOc1no[n+]([O-])c1-c1ccccc1 | 11% | –
2 | COC(=O)CSc1no[n+]([O-])c1-c1ccccc1 | 15% | –
3 | [O-][n+]1onc(-c2ccccc2)c1SC1CCNCC1 | 35% | –
4 | Cc1nonc1-c1nc2ccccc2[nH]1 | 20% | –
5 | O=S(=O)(CCO)c1c(-c2ccccc2)no[n+]1[O-] | – | IC50 [2]: 7.5 µM
6 | CN(C)Cc1no[n+]([O-])c1C#N | 5% | –
7 | Cc1nonc1-c1nc(S)n[nH]1 | 32% | –
8 | N#Cc1c(CN2CCC(Cc3c[nH]cn3)CC2)no[n+]1[O-] | 9% | –
9 | CN(C)CCCOc1nonc1S(=O)(=O)c1ccccc1 | 15% | –
10 | Cc1ncc([N+](=O)[O-])n1CCNCc1nonc1C#N | 23% | –
11 | CN(C)Cc1no[n+]([O-])c1C(N)=O | 11% | –
12 | O=S(=O)(c1ccccc1)c1no[n+]([O-])c1S(=O)(=O)c1ccccc1 | – | IC50 [2]: 3.5 µM
13 | [O-][n+]1onc(Br)c1-c1ccccc1 | – | IC50 [2]: 13 µM
14 | CCOC(=O)COc1no[n+]([O-])c1S(=O)(=O)c1ccccc1 | – | IC50 [2]: 7.5 µM
15 | O=C(O)CSc1nonc1-c1ccccc1 | 31% | –
16 | O=C(O)c1ccc(CC(CO[N+](=O)[O-])O[N+](=O)[O-])cc1 (stereo not given) | 0% | –
17 | O=S(=O)(c1ccccc1)c1c(OCCCO)no[n+]1[O-] | – | IC50 [2]: 7.5 µM
18 | O=S(=O)(c1ccccc1)c1nonc1-c1ccccc1 | – | IC50 [2]: 10 µM; IC50 [3]: > 50 µM; IC50 [4]: > 50 µM; IC50 [5]: > 50 µM; IC50 [6]: > 50 µM
19 | CCSCCS(=O)(=O)c1nonc1-c1ccccc1 | 25% | IC50 [3]: > 50 µM; IC50 [4]: 28.7 µM; IC50 [5]: > 50 µM; IC50 [6]: > 50 µM
20 | COc1ccccc1NCCS(=O)(=O)c1nonc1-c1ccccc1 | – | IC50 [2]: 10 µM; IC50 [3]: > 50 µM; IC50 [4]: 50 µM; IC50 [5]: 11.6 µM; IC50 [6]: 15.8 µM
21 | Cc1no[n+]([O-])c1-c1nc(S)n[nH]1 | 40% | –
22 | O=S(=O)(CCO)c1nonc1-c1ccccc1 | 17% | –

Row | SMILES | inhibition of growth at 25 µM [1] | also measured
23 | Cc1c(-c2nc(S)n[nH]2)no[n+]1[O-] | 29% | –
24 | Cc1nonc1-c1nc2ccccc2s1 | 22% | –
25 | Cc1c(/C=N/O)no[n+]1[O-] | 32% | –
26 | N#Cc1nonc1CN1CCC(Cc2c[nH]cn2)CC1 | 0% | –
27 | Cc1ncc([N+](=O)[O-])n1CCOc1nonc1-c1ccccc1 | – | IC50 [2]: 5 µM
28 | CCOc1c(-c2ccccc2)no[n+]1[O-] | – | IC50 [2]: 18 µM
29 | CN(C)Cc1nonc1C#N | 13% | –
30 | CN(C)CCCOc1no[n+]([O-])c1S(=O)(=O)c1ccccc1 | – | IC50 [2]: 3 µM
31 | CCNCCCO[N+](=O)[O-] | 0% | –
32 | [O-][n+]1onc(/C=N/O)c1CO | 3% | –
33 | Cc1ncc([N+](=O)[O-])n1CCOc1no[n+]([O-])c1S(=O)(=O)c1ccccc1 | – | IC50 [2]: 5 µM
34 | Cc1nonc1-c1ccc(C(=O)O)cc1 | 32% | –
35 | Cc1c(CN(C)C)no[n+]1[O-] | 0% | –
36 | CS(=O)(=O)CCOc1nonc1-c1ccccc1 | 4% | –
37 | Cc1no[n+]([O-])c1/C=N/O | 17% | –
38 | NC(=O)c1c(-c2ccccc2)no[n+]1[O-] | 35% | –
39 | NC(=O)CSc1nonc1-c1ccccc1 | 17% | IC50 [3]: > 50 µM; IC50 [4]: > 50 µM; IC50 [5]: > 50 µM; IC50 [6]: > 50 µM
40 | Nc1no[n+]([O-])c1-c1ccccc1 | – | IC50 [2]: 25 µM
41 | COc1cc(CN2CCN(c3ccc(CC(CO[N+](=O)[O-])O[N+](=O)[O-])cc3)CC2)cc(OC)c1OC (stereo not given) | 3% | –
42 | O=S(=O)(c1ccccc1)c1nonc1S(=O)(=O)c1ccccc1 | – | IC50 [2]: 2 µM
43 | NC(=O)CS(=O)(=O)c1nonc1-c1ccccc1 | 27% | IC50 [3]: > 50 µM; IC50 [4]: > 50 µM; IC50 [5]: > 50 µM; IC50 [6]: > 50 µM
44 | NC(=O)c1nonc1CO | 0% | –

Row | SMILES | inhibition of growth at 25 µM [1] | also measured
45 | CN(C)CCCOc1no[n+]([O-])c1-c1ccccc1 | 0% | –
46 | NC(=O)c1nonc1CN1CCC(Cc2c[nH]cn2)CC1 | 0% | –
47 | O=C(O)CSc1no[n+]([O-])c1-c1ccccc1 | 4% | –
48 | NC(=O)c1c(CNC(c2c[nH]cn2)C2CCNCC2)no[n+]1[O-] (stereo not given) | 17% | –
49 | Cc1nonc1-c1nc2ccccc2o1 | 15% | –
50 | NC(=O)CSc1c(-c2ccccc2)no[n+]1[O-] | 19% | IC50 [3]: > 50 µM; IC50 [4]: > 50 µM; IC50 [5]: > 50 µM; IC50 [6]: > 50 µM
51 | Nc1nonc1-c1ccccc1 | 45% | –
52 | NC(=O)c1c(CN2CCCCC2)no[n+]1[O-] | 4% | –
53 | NC(=O)c1c(CO)no[n+]1[O-] | 0% | –
54 | NC(=O)c1no[n+]([O-])c1-c1ccccc1 | 10% | –
55 | [O-][n+]1onc(-c2ccccc2)c1Br | – | IC50 [2]: 5 µM
56 | Cc1nonc1CN1CCC(Cc2c[nH]cn2)CC1 | 21% | –
57 | CCOCCS(=O)(=O)c1nonc1-c1ccccc1 | – | IC50 [2]: 7.5 µM; IC50 [3]: > 50 µM; IC50 [4]: > 50 µM; IC50 [5]: > 50 µM; IC50 [6]: > 50 µM
58 | [O-][n+]1onc(CO)c1/C=N/O | 2% | –
59 | CCOc1nonc1S(=O)(=O)c1ccccc1 | 25% | –
60 | N#Cc1c(CNC(c2c[nH]cn2)C2CCNCC2)no[n+]1[O-] (stereo not given) | 7% | –
61 | Cc1nonc1CNCCn1c([N+](=O)[O-])cnc1C | 18% | –
62 | Cc1ncc([N+](=O)[O-])n1CCNCc1nonc1C(N)=O | 14% | –
63 | Cc1nonc1C(=O)NNC(N)=S | 16% | –
64 | O=S(=O)(CCO)c1no[n+]([O-])c1-c1ccccc1 | – | IC50 [2]: 25 µM
65 | Nc1no[n+]([O-])c1C(=O)N1CCCCC1 | 17% | –
66 | CC1CS(=O)(=O)CCN1/N=C/c1ccc([N+](=O)[O-])o1 (stereo not given) [NIFURTIMOX] | – | IC50 [2]: 7.7 µM; IC50 [3]: 4.9 µM; IC50 [4]: 9.7 µM

Row | SMILES | inhibition of growth at 25 µM [1] | also measured
67 | O=Cc1ccc(CC(CO[N+](=O)[O-])O[N+](=O)[O-])cc1 (stereo not given) | 0% | –
68 | CN(C)Cc1nonc1C(N)=O | 0% | –
69 | Nc1c(-c2ccccc2)no[n+]1[O-] | 39% | –
70 | Cc1no[n+]([O-])c1-c1ccc(C(=O)O)cc1 | 38% | –
71 | Cc1ncc([N+](=O)[O-])n1CCOc1no[n+]([O-])c1-c1ccccc1 | – | IC50 [2]: 4 µM
72 | NC(=O)CSc1no[n+]([O-])c1-c1ccccc1 | 12% | IC50 [3]: > 50 µM; IC50 [4]: > 50 µM; IC50 [5]: > 50 µM; IC50 [6]: > 50 µM
73 | CN(C)CCCOc1nonc1-c1c[nH]cn1 | 3% | –
74 | Cc1nonc1CNC(c1c[nH]cn1)C1CCNCC1 (stereo not given) | 2% | –
75 | NC(=O)c1nonc1CN1CCCCC1 | 3% | –
76 | O=Cc1ccc(OCC(CO[N+](=O)[O-])O[N+](=O)[O-])cc1 (stereo not given) | 1% | –
77 | O=S(=O)(c1ccccc1)c1nonc1-c1c[nH]cn1 | 12% | –
78 | NC(=O)c1c(CN2CCC(Cc3c[nH]cn3)CC2)no[n+]1[O-] | 6% | –
79 | N#Cc1nonc1-c1ccccc1 | 2% | –
80 | Cc1ncc([N+](=O)[O-])n1CCNCc1no[n+]([O-])c1C(N)=O | 10% | –
81 | Cc1c(CNC(c2c[nH]cn2)C2CCNCC2)no[n+]1[O-] (stereo not given) | 0% | –
82 | NC(=O)CS(=O)(=O)c1no[n+]([O-])c1-c1ccccc1 | – | IC50 [2]: 25 µM; IC50 [3]: > 50 µM; IC50 [4]: 48 µM; IC50 [5]: > 50 µM; IC50 [6]: > 50 µM
83 | O=C(O)COc1no[n+]([O-])c1S(=O)(=O)c1ccccc1 | 35% | –
84 | Cc1ncc([N+](=O)[O-])n1CCOc1nonc1S(=O)(=O)c1ccccc1 | – | IC50 [2]: 19 µM
85 | Cc1c(C(=O)NNC(N)=S)no[n+]1[O-] | 9% | –
86 | O=C(O)CSc1c(S(=O)(=O)c2ccccc2)no[n+]1[O-] | 0% | –
87 | Cc1no[n+]([O-])c1C(=O)NNC(N)=S | 10% | –
88 | CN(C)C(=O)CS(=O)(=O)c1c(-c2ccccc2)no[n+]1[O-] | – | IC50 [2]: 7.5 µM

Row | SMILES | inhibition of growth at 25 µM [1] | also measured
89 | Cc1ncc([N+](=O)[O-])n1CCNCc1no[n+]([O-])c1C | 17% | –
90 | Cc1nonc1CN(C)C | 0% | –
91 | [O-][n+]1onc(SC2CCNCC2)c1-c1ccccc1 | 32% | –
92 | Cc1c(-c2ccc(C(=O)O)cc2)no[n+]1[O-] | 34% | –
93 | CCOc1no[n+]([O-])c1S(=O)(=O)c1ccccc1 | – | IC50 [2]: 7.5 µM
94 | Cc1ncc([N+](=O)[O-])n1CCOCC[N+](=O)[O-] | 13% | –
95 | N#Cc1no[n+]([O-])c1-c1ccccc1 | 15% | –
96 | CCOc1nonc1-c1ccccc1 | 35% | –
97 | c1ccc(-c2nonc2SC2CCNCC2)cc1 | 34% | –
98 | O=C(Cn1ccnc1[N+](=O)[O-])NCc1ccccc1 [BENZNIDAZOLE] | – | IC50 [2]: 4.5 µM; IC50 [6]: 3.8 µM
99 | CN(C)CCCOc1nonc1-c1ccccc1 | 0% | –
100 | CCOc1no[n+]([O-])c1-c1ccccc1 | – | IC50 [2]: 7.5 µM
101 | CCOCC.NC(=O)c1nonc1CNC(c1c[nH]cn1)C1CCNCC1 (stereo not given) | 0% | –
102 | Cc1c(CN2CCC(Cc3c[nH]cn3)CC2)no[n+]1[O-] | 4% | –
103 | O=C(O)c1ccc(OCC(CO[N+](=O)[O-])O[N+](=O)[O-])cc1 (stereo not given) | 0% | –
104 | Cc1ncc([N+](=O)[O-])n1CCNCc1no[n+]([O-])c1C#N | 5% | –
105 | COC(=O)CSc1c(S(=O)(=O)c2ccccc2)no[n+]1[O-] | 22% | –
106 | CCCCCCNC(=O)N/N=C/c1c(-c2ccccc2)no[n+]1[O-] | – | IC50 [2]: 25 µM

Reference: ChEMBL document CHEMBL1140032, “Furoxan-, alkylnitrate-derivatives and related compounds as anti-trypanosomatid agents: mechanism of action studies” (2008)
